Some test systems named below: DU-145 prostate; SNB-75 CNS; OVCAR-4 ovarian; NCI-H460 lung; HCT-116 colon; CAKI-1 renal; LOX IMVI melanoma; HOP-62 NSCLC; UACC-62 melanoma; BT-549 breast.
Experiment in all cases: growth of human tumour cells (NCI), 48 h

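Five concentrations, 48 hours, 96-well plates. GI50 is the concentration that inhibits growth by half. TGI: total growth inhibition.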 A value given as a limit tells only on which side of the number the result lay.

Turning to `CC(=O)OC1c2ccccc2CC2(OC(C)=O)c3ccccc3C12` (stereo unspecified), the TGI in the test with DU-145 prostate, with SNB-75 CNS, in the test with OVCAR-4 ovarian, with NCI-H460 lung, with HCT-116 colon and in the test on CAKI-1 renal was over 100 µM in each case. Moreover, the TGI in the test on LOX IMVI melanoma, in the test on HOP-62 NSCLC and in the test on UACC-62 melanoma was over 100 µM throughout.

For `CC1=C2CCCC2C/C(=N/Nc2ccc([N+](=O)[O-])cc2[N+](=O)[O-])CC1` (stereo unspecified), the TGI in the test with SNB-75 CNS, with OVCAR-4 ovarian, with NCI-H460 lung, in the test with HCT-116 colon, in the test on CAKI-1 renal and with LOX IMVI melanoma was over 100 µM in each case. Moreover, the TGI with HOP-62 NSCLC and with UACC-62 melanoma was over 100 µM each time.

For `CC1CC2C(=O)NC(=O)C2c2[nH]c3ccccc3c21` (stereo unspecified), the TGI in the test on SNB-75 CNS, in the test with OVCAR-4 ovarian, in the test with NCI-H460 lung, in the test with HCT-116 colon, in the test on CAKI-1 renal and in the test with LOX IMVI melanoma was over 100 µM throughout. The TGI in the test on HOP-62 NSCLC is over 100 µM.

As to `CC12CCC(=O)C(O1)C1C(=O)c3cc4ccccc4cc3C(=O)C12` (stereo unspecified), the GI50 in the test on BT-549 breast was 23.7 µM; with SNB-75 CNS, 29.2 µM; in the test with OVCAR-4 ovarian it was 12.2 µM; in the test with NCI-H460 lung, 14 µM; in the test with HCT-116 colon it was 17.7 µM; with CAKI-1 renal it was 4.94 µM. In the test on HOP-62 NSCLC, the GI50 is 45 µM. In addition, the TGI is 58.6 µM in the test on BT-549 breast; over 100 µM with SNB-75 CNS; 41.2 µM with OVCAR-4 ovarian; 51 µM with NCI-H460 lung; 34.6 µM with HCT-116 colon; 25.6 µM with CAKI-1 renal. The TGI in the test with HOP-62 NSCLC was over 100 µM.

With `CC1(C)CCC2(C(=O)OC3OC(CO)C(O)C(O)C3O)CC[C@]3(C)C(=CCC4C5(C)CC[C@H](OC6OC(C(=O)O)C(O)C(O)C6O)C(C)(C)C5CCC43C)C2C1` (stereo partly specified), the GI50 was 1.7 µM in the test with BT-549 breast; 2.51 µM with NCI-H460 lung; 1.12 µM in the test on HCT-116 colon; 17.2 µM with CAKI-1 renal; 0.807 µM with LOX IMVI melanoma; 2.22 µM in the test on HOP-62 NSCLC. Further, in the test on UACC-62 melanoma, the GI50 is 0.887 µM. Besides, the TGI in the test with BT-549 breast is 25.8 µM; in the test on NCI-H460 lung, over 50 µM; with HCT-116 colon, 2.38 µM; in the test on CAKI-1 renal, over 50 µM; in the test on LOX IMVI melanoma, 1.49 µM; in the test on HOP-62 NSCLC, 7.6 µM. In the test with UACC-62 melanoma, this compound registered a TGI of 1.92 µM.

Turning to `Cc1ccc2c(c1)C1(C)OC(CC(N)C1O)O2` (stereo unspecified), the TGI in the test with SNB-75 CNS, in the test on NCI-H460 lung, in the test on HCT-116 colon, in the test with LOX IMVI melanoma, with HOP-62 NSCLC and in the test with UACC-62 melanoma was over 100 µM throughout.

As to `COC(=O)[C@@H]1CSC(=S)N1C(=O)C[C@H]1CC=CC[C@H]1CC(=O)Sc1ccccc1`, the TGI in the test on SNB-75 CNS was found to be 29 µM; in the test on NCI-H460 lung, 33.5 µM; with HCT-116 colon, 30.8 µM; in the test with LOX IMVI melanoma, 33.1 µM; with HOP-62 NSCLC, 38 µM; in the test on UACC-62 melanoma it was 38.3 µM.

As for `CN(C)c1ccc2nc3ccc(=[N+](C)C)cc-3oc2c1`, the GI50 with DU-145 prostate is 5.71 µM; in the test on BT-549 breast it was 11.2 µM; with SNB-75 CNS, 2.63 µM; with NCI-H460 lung, 2.82 µM; in the test with HCT-116 colon, 0.892 µM; in the test with CAKI-1 renal it was 5.92 µM. Besides, the results for the GI50 in the test on LOX IMVI melanoma, with HOP-62 NSCLC and in the test on UACC-62 melanoma were 2.32 µM, 3.58 µM and 2.32 µM, respectively. Further, the TGI in the test on DU-145 prostate was 49.4 µM; in the test with BT-549 breast, 74.2 µM; with SNB-75 CNS it was 17.1 µM; in the test on NCI-H460 lung, over 100 µM; in the test on HCT-116 colon, 12.1 µM; in the test on CAKI-1 renal, 57.6 µM. Also, the TGI with LOX IMVI melanoma amounted to 9.28 µM; in the test with HOP-62 NSCLC, 50.5 µM; in the test on UACC-62 melanoma, 19.2 µM.

As to `CC1(Sc2ccccc2)CN(Cc2ccccc2)C1=O` (stereo unspecified), the TGI with SNB-75 CNS, in the test on OVCAR-4 ovarian, in the test with NCI-H460 lung, in the test with HCT-116 colon, with LOX IMVI melanoma and in the test on HOP-62 NSCLC was over 100 µM in each case. Moreover, the TGI with UACC-62 melanoma is over 100 µM.

As for `C=C1C(=O)OC2CC3(C)C=CC(=O)C(=C)C3CC12` (stereo unspecified), the TGI is 14.7 µM in the test with SNB-75 CNS; 6.55 µM in the test with OVCAR-4 ovarian; 7.12 µM in the test with NCI-H460 lung; 2.54 µM with HCT-116 colon; 2.77 µM in the test with CAKI-1 renal; 1.86 µM in the test with LOX IMVI melanoma. In addition, the TGI with HOP-62 NSCLC came to 19.2 µM; with UACC-62 melanoma, 2.92 µM.

For the compound `COc1cccc(OC(=O)c2ccccc2Nc2ccnc(C(F)(F)F)c2)c1`, the GI50 is 8.11 µM in the test with BT-549 breast; 4.1 µM in the test with NCI-H460 lung; 1.12 µM with HCT-116 colon; 2.68 µM in the test on CAKI-1 renal; 1.07 µM with LOX IMVI melanoma; 2.84 µM in the test on HOP-62 NSCLC. The GI50 in the test on UACC-62 melanoma is 3.09 µM. For the same compound, the TGI with BT-549 breast is 55 µM; in the test with NCI-H460 lung, over 100 µM; in the test with HCT-116 colon, 3.07 µM; in the test with CAKI-1 renal it was 80.2 µM; with LOX IMVI melanoma, 10.4 µM; in the test with HOP-62 NSCLC, 6.73 µM. The compound also had a TGI in the test with UACC-62 melanoma of 33.9 µM.

Turning to `Cc1ccc(C(=O)Nc2ccc(S(=O)(=O)O)c3cc(S(=O)(=O)O)cc(S(=O)(=O)O)c23)cc1NC(=O)c1cccc(N)c1`, the TGI with BT-549 breast, in the test with SNB-75 CNS, in the test with OVCAR-4 ovarian, in the test on NCI-H460 lung, in the test with CAKI-1 renal and with HOP-62 NSCLC was over 100 µM each time. For the same compound, in the test with UACC-62 melanoma, the TGI was over 100 µM.

Take `CCOP(=O)(OCC)C1CCCCOC1=O` (stereo unspecified): the TGI is over 100 µM in the test on SNB-75 CNS; over 100 µM with OVCAR-4 ovarian; over 100 µM in the test on NCI-H460 lung; over 100 µM with HCT-116 colon; over 100 µM in the test with CAKI-1 renal; 40 µM in the test on LOX IMVI melanoma. In addition, the TGI with HOP-62 NSCLC and in the test with UACC-62 melanoma was over 100 µM each time.
